This passage reports Ki results from US8173635B2, “Kinase inhibitors” (Vertex Pharmaceuticals Incorporated, priority 2007, dated 2012).

What all share (assay type): biochemical
One test concerns the target PKC theta kinase (Homo sapiens, UniProt Q04759). Nature of the test: PKC theta kinase inhibition, coupled-enzyme NADH absorbance assay (Ki). To be noted: 240 μM ATP, 18 nM PKC theta, 30° C.; read-out: Ki PKC theta. A digest of the protocol:
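Enzyme and compound equilibrated 10 min at 30 °C before reaction in HEPES pH 7.5 buffer with MgCl2, NaCl, EDTA and Brij. Activity tracked as NADH loss at 340 nm through a coupled system. Initial-rate data fitted by non-linear regression to give Ki.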

In the next test the target is PKC delta kinase (Homo sapiens, UniProt Q05655). Description: PKC delta kinase inhibition, coupled-enzyme NADH absorbance assay (Ki). To be noted: 150 μM ATP, 46 nM PKC delta, 30° C.; read-out: Ki PKC delta. A digest of the protocol:
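Assay buffer was 100 mM HEPES pH 7.5, 10 mM MgCl2, 25 mM NaCl, 0.1 mM EDTA, 0.01% Brij. Enzyme buffer was equilibrated with compound in DMSO for 10 min at 30 °C. Ki values were derived by non-linear regression of initial rate data.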

For the next test, the target named is PKC alpha kinase (Homo sapiens, UniProt P17252). Description: PKC alpha kinase inhibition, coupled-enzyme NADH absorbance assay (Ki). To be noted: 130 μM ATP, 4.5 nM PKC alpha, 30° C.; read-out: Ki PKC alpha.

Structures are written as SMILES.

Sequence of PKC theta kinase (Q04759 whole entry): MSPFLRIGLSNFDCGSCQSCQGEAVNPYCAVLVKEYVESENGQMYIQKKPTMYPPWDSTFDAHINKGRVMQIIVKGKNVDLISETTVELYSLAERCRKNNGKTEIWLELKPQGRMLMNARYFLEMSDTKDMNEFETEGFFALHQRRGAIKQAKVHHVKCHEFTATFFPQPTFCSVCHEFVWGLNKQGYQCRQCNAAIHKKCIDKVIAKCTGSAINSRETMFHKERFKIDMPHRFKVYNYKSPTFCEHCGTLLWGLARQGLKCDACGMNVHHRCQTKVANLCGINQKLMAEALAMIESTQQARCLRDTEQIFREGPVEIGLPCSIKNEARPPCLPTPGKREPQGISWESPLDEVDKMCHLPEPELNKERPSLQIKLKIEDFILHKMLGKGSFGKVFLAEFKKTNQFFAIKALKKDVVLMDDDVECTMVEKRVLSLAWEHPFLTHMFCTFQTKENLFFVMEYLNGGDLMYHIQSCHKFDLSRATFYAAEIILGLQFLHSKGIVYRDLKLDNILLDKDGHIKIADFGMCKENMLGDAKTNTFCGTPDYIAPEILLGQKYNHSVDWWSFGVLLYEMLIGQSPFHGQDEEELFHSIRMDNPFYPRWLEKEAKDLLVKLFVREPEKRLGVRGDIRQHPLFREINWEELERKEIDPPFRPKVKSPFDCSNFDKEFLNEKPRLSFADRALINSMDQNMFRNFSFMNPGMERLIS
Sequence of PKC delta kinase (Q05655 whole entry): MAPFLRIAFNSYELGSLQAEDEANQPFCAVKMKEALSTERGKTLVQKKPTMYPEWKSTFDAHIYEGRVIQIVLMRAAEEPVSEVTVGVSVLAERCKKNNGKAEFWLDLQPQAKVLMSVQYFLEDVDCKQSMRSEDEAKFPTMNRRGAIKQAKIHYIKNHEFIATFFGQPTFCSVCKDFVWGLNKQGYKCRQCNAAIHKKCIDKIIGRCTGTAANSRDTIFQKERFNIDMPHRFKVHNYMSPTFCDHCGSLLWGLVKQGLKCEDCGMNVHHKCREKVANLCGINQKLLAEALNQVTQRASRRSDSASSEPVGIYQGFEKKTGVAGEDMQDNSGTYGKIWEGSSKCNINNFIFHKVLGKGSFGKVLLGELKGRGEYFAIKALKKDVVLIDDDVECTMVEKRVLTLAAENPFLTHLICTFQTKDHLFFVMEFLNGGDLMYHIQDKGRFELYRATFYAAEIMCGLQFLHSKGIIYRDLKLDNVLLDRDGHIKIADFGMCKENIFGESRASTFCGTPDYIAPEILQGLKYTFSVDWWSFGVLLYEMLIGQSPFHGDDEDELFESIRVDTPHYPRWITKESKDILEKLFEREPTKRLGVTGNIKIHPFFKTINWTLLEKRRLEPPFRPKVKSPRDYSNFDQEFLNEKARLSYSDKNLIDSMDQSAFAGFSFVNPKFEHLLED

For the compound `CC(CN)(CC1CCOCC1)c1cccc(-c2ccnc3[nH]ncc23)c1` (stereo not drawn) [Compound 179], the Ki at PKC theta kinase is less than 50 nM; at PKC delta kinase it was less than 500 nM; on PKC alpha kinase, less than 500 nM.
As to `Cc1cc(-c2ccnc3[nH]nc(Cl)c23)cc(C2(CN)CCOCC2)c1` [Compound 209], the Ki on PKC theta kinase is less than 50 nM; on PKC delta kinase, less than 500 nM; on PKC alpha kinase, less than 500 nM.
Take `CC(CN)(Cc1ccccn1)c1cccc(-c2ccnc3[nH]ncc23)c1` (stereo not drawn) [Compound 175]: the Ki on PKC theta kinase was less than 500 nM; on PKC delta kinase, greater than 2000 nM; on PKC alpha kinase, greater than 1200 nM.
Taken in the same sequence, the figures for `CC(N)c1cccc(-c2ccnc3[nH]ncc23)c1` (stereo not drawn) [Compound 246] were less than 500 nM, less than 2800 nM and greater than 1200 nM.
Take `CC(F)c1cc(-c2ccnc3[nH]ncc23)cc(C(C)(C)CN)c1` (stereo not drawn) [Compound 136]: the Ki is less than 50 nM on PKC theta kinase, less than 2800 nM at PKC delta kinase and less than 2800 nM at PKC alpha kinase.
As to `OCC1(c2cccc(-c3ccnc4[nH]nc(C(F)(F)F)c34)c2)CCC1` [Compound 291], the values for the Ki on PKC theta kinase, at PKC delta kinase and on PKC alpha kinase were less than 50 nM, less than 2800 nM and greater than 1200 nM, respectively.
On to `CCC(C)(C#N)c1cc(CCCF)cc(-c2ccnc3[nH]ncc23)c1` (stereo not drawn) [Compound 107], for which the figures for the Ki at PKC theta kinase, at PKC delta kinase and at PKC alpha kinase were less than 500 nM, greater than 2000 nM and less than 2800 nM, respectively.
For the compound `CCC(F)(CN)c1cc(C)cc(-c2ccnc3[nH]ncc23)c1` (stereo not drawn) [Compound 227], the values for the Ki on PKC theta kinase, at PKC delta kinase and on PKC alpha kinase were less than 50 nM, less than 2800 nM and less than 500 nM, respectively.
`CC(CN)(CC(F)F)c1cccc(-c2ccnc3[nH]ncc23)c1` (stereo not drawn) [Compound 148]: the Ki at PKC theta kinase was less than 50 nM; at PKC delta kinase it was less than 50 nM; at PKC alpha kinase, less than 500 nM.
For `CCC(O)c1cccc(-c2ccnc3[nH]ncc23)c1` (stereo not drawn) [Compound 77], the figures for the Ki at PKC theta kinase, on PKC delta kinase and on PKC alpha kinase were less than 2800 nM, greater than 2800 nM and greater than 2800 nM, respectively.
With `N#CC(CCO)c1cccc(-c2ccnc3[nH]ncc23)c1` (stereo not drawn) [Compound 224], the Ki is less than 500 nM at PKC theta kinase, greater than 2000 nM on PKC delta kinase and greater than 1200 nM at PKC alpha kinase.
`C=CCC(C)(CN)c1cccc(-c2ccnc3[nH]ncc23)c1` (stereo not drawn) [Compound 134]: the Ki on PKC theta kinase is less than 50 nM; on PKC delta kinase it was less than 500 nM; at PKC alpha kinase it was less than 500 nM.
As for `OCC1(c2cccc(-c3ccnc4[nH]ncc34)c2)CC1` [Compound 243], the Ki was less than 500 nM at PKC theta kinase, greater than 2000 nM at PKC delta kinase and greater than 1200 nM at PKC alpha kinase.
Taken in the same sequence, the figures for `CC#CCC(C)(CN)c1cccc(-c2ccnc3[nH]ncc23)c1` (stereo not drawn) [Compound 155] were less than 50 nM, less than 50 nM and less than 500 nM.
For `CC(O)c1cc(-c2ccnc3[nH]ncc23)cc(C(C)(C)CN)c1` (stereo not drawn) [Compound 39], the Ki is less than 500 nM at PKC theta kinase, greater than 2800 nM on PKC delta kinase and greater than 2800 nM at PKC alpha kinase.
With `CCCC(C)(CN)c1cccc(-c2ccnc3[nH]ncc23)c1` (stereo not drawn) [Compound 51], the results for the Ki on PKC theta kinase, on PKC delta kinase and on PKC alpha kinase were less than 50 nM, less than 50 nM and less than 500 nM, respectively.
With `CCC(C)(CN)c1cc(CC(F)(F)F)cc(-c2ccnc3[nH]ncc23)c1` (stereo not drawn) [Compound 163], the Ki at PKC theta kinase is less than 500 nM; at PKC delta kinase it was greater than 2000 nM; on PKC alpha kinase it was greater than 1200 nM.
Taken in the same sequence, the figures for `CC(C)(O)CCc1cc(-c2ccnc3[nH]nc(C(F)(F)F)c23)cc(C2(C#N)CC2)c1` [Compound 316] were less than 50 nM, greater than 1200 nM and greater than 1200 nM.
Taken in the same sequence, the figures for `CCCc1cc(-c2ccnc3[nH]ncc23)cc(C(C)(C)CC#N)c1` [Compound 218] were less than 500 nM, greater than 2000 nM and less than 2800 nM.
For `CCC1(c2cccc(-c3ccnc4[nH]nc(C(F)(F)F)c34)c2)CNC(=O)O1` (stereo not drawn) [Compound 288], the Ki was less than 50 nM at PKC theta kinase, less than 2800 nM on PKC delta kinase and less than 500 nM on PKC alpha kinase.
With `C=Cc1cc(-c2ccnc3[nH]ncc23)cc(C(C)(C)CN)c1` [Compound 36], the results for the Ki on PKC theta kinase, at PKC delta kinase and on PKC alpha kinase were less than 500 nM, less than 2800 nM and less than 2800 nM, respectively.
As to `CCSc1cc(-c2ccnc3[nH]ncc23)cc(C(C)(CC)CN)c1` (stereo not drawn) [Compound 166], the figures for the Ki at PKC theta kinase, on PKC delta kinase and at PKC alpha kinase were less than 50 nM, less than 2800 nM and less than 500 nM, respectively.
Taken in the same sequence, the figures for `CCc1cc(-c2ccnc3[nH]nc(Cl)c23)cc(C2(CN)CCC2)c1` [Compound 211] were less than 50 nM, less than 2800 nM and less than 500 nM.
`CCC(CN)c1cccc(-c2ccnc3[nH]nc(C(F)(F)F)c23)c1` (stereo not drawn) [Compound 281]: the Ki is less than 50 nM at PKC theta kinase, less than 50 nM at PKC delta kinase and less than 500 nM on PKC alpha kinase.
On to `CCC(C)(CO)c1cccc(-c2ccnc3[nH]nc(C(F)(F)F)c23)c1` (stereo not drawn) [Compound 318], for which the Ki on PKC theta kinase is less than 50 nM; at PKC delta kinase, less than 50 nM; at PKC alpha kinase, less than 500 nM.
Turning to `Cc1cc(-c2ccnc3[nH]ncc23)cc(C(C)(C)CN)c1` [Compound 32], the Ki at PKC theta kinase was less than 50 nM; at PKC delta kinase it was less than 500 nM; on PKC alpha kinase, less than 500 nM.
Turning to `COCC[C@@](C)(CN)c1cccc(-c2ccnc3[nH]nc(C(F)(F)F)c23)c1` [Compound 286], the Ki on PKC theta kinase was less than 50 nM; on PKC delta kinase it was less than 500 nM; on PKC alpha kinase, less than 500 nM.
Regarding `CCc1cc(-c2ccnc3[nH]ncc23)cc(C(C)(CC)CN)c1` (stereo not drawn) [Compound 131], the Ki was less than 50 nM on PKC theta kinase, less than 2800 nM on PKC delta kinase and less than 500 nM at PKC alpha kinase.
On the same counts, the results for `CC(CN)(Cc1ccccc1)c1cccc(-c2ccnc3[nH]ncc23)c1` (stereo not drawn) [Compound 149] are less than 50 nM, less than 500 nM and less than 500 nM.
With `NCC1(c2cc(F)cc(-c3ccnc4[nH]nc(C(F)(F)F)c34)c2)CCOCC1` [Compound 276], the Ki on PKC theta kinase is less than 50 nM; at PKC delta kinase, less than 2800 nM; at PKC alpha kinase, less than 500 nM.
On the same counts, the results for `OCC1(c2cccc(-c3ccnc4[nH]ncc34)c2)CCC1` [Compound 242] are less than 500 nM, greater than 2000 nM and greater than 1200 nM.
On to `C#CCC(C)(CN)c1cccc(-c2ccnc3[nH]ncc23)c1` (stereo not drawn) [Compound 135], for which the Ki at PKC theta kinase, at PKC delta kinase and on PKC alpha kinase was less than 50 nM throughout.
Turning to `CC(C)(C#N)c1cc(Br)cc(-c2ccnc3[nH]ncc23)c1` [Compound 18], the Ki on PKC theta kinase is less than 50 nM; at PKC delta kinase, less than 2800 nM; at PKC alpha kinase, less than 2800 nM.
Consider `Cc1cc(-c2ccnc3[nH]ncc23)cc(C2(CN)CNC(=O)O2)c1` (stereo not drawn) [Compound 310], for which the Ki at PKC theta kinase is less than 50 nM; on PKC delta kinase, greater than 1200 nM; at PKC alpha kinase it was less than 2800 nM.
On to `Cc1n[nH]c2nccc(-c3cc(F)cc(C4(CN)CCC4)c3)c12` [Compound 262], for which the Ki at PKC theta kinase was less than 50 nM; on PKC delta kinase, less than 500 nM; at PKC alpha kinase it was less than 500 nM.
On to `CC(CN)(Cc1ccncc1)c1cccc(-c2ccnc3[nH]ncc23)c1` (stereo not drawn) [Compound 172], for which the Ki at PKC theta kinase is less than 50 nM; at PKC delta kinase, less than 500 nM; on PKC alpha kinase, less than 2800 nM.
As for `CCC(C)(CN)c1cc(F)cc(-c2ccnc3[nH]nc(Cl)c23)c1` (stereo not drawn) [Compound 258], the Ki on PKC theta kinase, on PKC delta kinase and on PKC alpha kinase was less than 50 nM each time.
